Results taken from patent US20110152313A1 (MACQUARIE UNIVERSITY, priority 2008, published 2011).

Columns and labels:
Experiment in all cases: kinase binding screen (kinase-tagged T7 phage, qPCR), % Ctrl
PIK4CB = PIK4CB (Homo sapiens, UniProt Q9UBF8)
Protocol: (§1) Percentage kinase inhibition at a set concentration was performed by methods well known in the prior art (Fabian, M. A. et al. Nat. Biotechnol. 2005, 23, 329; Karaman et al. (2008) Nat. Biotechnol. […], 26, 127). Briefly, kinase-tagged T7 phage strains were grown in parallel in 24-well blocks in an E. coli host derived from the BL21 strain. E. coli were grown to log-phase and infected with T7 phage from a frozen stock (multiplicity of infection=0.4) and incubated with shaking at 32° C. until lysis (90-150 minutes). The lysates were centrifuged (6,000×g) and filtered (0.2 μm) to remove cell debris. […] The liganded beads were blocked with excess biotin and washed with blocking buffer (SeaBlock (Pierce); 1% BSA, 0.05% Tween 20, 1 mM DTT) to remove unbound ligand and to reduce non-specific phage binding. […] Test compounds were prepared as 40× stocks in 100% DMSO and directly diluted into the assay. All reactions were performed in polypropylene 384-well plates in a final volume of 0.04 mL. […] The kinase concentration in the eluates was measured by qPCR.

AAK1 = AAK1 (Homo sapiens, UniProt Q2M2I8)
AAK1, sequence (Q2M2I8 whole entry): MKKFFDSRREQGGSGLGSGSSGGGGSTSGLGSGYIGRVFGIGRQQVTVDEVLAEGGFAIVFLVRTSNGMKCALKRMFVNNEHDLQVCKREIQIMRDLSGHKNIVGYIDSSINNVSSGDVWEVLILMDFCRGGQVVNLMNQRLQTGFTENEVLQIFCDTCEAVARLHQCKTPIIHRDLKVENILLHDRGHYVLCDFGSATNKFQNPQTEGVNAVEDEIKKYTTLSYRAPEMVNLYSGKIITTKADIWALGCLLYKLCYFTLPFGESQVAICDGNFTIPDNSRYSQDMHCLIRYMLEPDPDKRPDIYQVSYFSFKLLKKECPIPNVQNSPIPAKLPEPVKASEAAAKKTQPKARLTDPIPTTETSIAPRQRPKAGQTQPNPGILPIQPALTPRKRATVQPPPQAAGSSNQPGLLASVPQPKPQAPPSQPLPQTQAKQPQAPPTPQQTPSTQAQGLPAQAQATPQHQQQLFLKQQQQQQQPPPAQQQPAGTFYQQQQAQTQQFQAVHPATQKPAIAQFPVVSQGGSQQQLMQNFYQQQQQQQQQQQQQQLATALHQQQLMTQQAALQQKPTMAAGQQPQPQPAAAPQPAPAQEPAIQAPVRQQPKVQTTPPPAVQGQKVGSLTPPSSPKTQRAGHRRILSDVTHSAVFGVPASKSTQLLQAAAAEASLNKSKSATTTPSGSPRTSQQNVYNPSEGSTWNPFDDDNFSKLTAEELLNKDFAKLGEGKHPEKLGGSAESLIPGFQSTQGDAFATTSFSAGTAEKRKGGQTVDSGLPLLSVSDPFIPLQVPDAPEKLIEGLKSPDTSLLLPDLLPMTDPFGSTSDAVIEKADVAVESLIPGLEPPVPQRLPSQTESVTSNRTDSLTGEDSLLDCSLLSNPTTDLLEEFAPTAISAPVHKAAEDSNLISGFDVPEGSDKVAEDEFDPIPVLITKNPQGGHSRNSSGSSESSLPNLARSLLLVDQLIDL
Protocol: as §1

[1] = biological target: RPS6KA1(Kin.Dom.2-C-terminal) (Homo sapiens, UniProt Q15418)
RPS6KA1(Kin.Dom.2-C-terminal), sequence (Q15418 418-675 limits assumed, species assumed): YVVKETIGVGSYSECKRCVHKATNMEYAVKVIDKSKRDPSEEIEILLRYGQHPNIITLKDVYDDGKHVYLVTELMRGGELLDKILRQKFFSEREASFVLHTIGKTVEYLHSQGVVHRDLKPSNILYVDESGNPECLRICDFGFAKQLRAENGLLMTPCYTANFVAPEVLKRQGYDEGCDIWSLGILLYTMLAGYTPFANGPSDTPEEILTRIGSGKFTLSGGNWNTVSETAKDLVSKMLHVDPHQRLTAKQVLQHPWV
Protocol: as §1

ULK3 = biological target: T1, ULK3 (Homo sapiens, UniProt Q6PHR2)
T1 sequence (Q6PHR2 1-472): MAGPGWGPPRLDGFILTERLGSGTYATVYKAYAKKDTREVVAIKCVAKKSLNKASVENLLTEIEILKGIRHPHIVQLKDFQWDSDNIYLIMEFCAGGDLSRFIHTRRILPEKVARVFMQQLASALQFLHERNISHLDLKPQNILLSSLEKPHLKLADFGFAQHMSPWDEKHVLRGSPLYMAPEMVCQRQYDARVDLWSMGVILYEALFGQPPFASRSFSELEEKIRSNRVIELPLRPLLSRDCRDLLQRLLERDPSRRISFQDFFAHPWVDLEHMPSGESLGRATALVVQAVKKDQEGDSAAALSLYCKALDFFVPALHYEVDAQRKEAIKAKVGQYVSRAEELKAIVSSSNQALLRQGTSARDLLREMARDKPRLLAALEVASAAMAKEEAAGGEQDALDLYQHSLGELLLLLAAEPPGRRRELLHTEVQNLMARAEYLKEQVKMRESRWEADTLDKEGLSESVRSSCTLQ
Protocol: as §1

CLK4 = CLK4 (Homo sapiens, UniProt Q9HAZ1)
CLK4, sequence (Q9HAZ1 whole entry, species assumed): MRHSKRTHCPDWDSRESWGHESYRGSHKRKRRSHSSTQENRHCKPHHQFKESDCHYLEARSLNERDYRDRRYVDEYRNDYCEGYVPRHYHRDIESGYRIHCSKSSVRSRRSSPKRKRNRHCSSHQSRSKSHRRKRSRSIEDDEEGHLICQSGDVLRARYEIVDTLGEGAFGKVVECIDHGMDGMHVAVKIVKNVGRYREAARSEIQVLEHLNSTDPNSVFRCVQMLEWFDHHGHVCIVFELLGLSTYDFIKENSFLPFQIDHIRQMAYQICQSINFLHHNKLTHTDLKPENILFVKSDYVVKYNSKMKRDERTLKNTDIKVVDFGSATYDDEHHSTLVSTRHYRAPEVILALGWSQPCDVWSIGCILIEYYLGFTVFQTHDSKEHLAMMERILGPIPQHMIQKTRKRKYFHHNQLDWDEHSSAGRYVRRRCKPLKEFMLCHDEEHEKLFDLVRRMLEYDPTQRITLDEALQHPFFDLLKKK
Protocol: as §1

MAP3K2 = biological target: T2, MAP3K2 (Homo sapiens, UniProt Q9Y2U5)
T2 sequence (Q9Y2U5 1-619): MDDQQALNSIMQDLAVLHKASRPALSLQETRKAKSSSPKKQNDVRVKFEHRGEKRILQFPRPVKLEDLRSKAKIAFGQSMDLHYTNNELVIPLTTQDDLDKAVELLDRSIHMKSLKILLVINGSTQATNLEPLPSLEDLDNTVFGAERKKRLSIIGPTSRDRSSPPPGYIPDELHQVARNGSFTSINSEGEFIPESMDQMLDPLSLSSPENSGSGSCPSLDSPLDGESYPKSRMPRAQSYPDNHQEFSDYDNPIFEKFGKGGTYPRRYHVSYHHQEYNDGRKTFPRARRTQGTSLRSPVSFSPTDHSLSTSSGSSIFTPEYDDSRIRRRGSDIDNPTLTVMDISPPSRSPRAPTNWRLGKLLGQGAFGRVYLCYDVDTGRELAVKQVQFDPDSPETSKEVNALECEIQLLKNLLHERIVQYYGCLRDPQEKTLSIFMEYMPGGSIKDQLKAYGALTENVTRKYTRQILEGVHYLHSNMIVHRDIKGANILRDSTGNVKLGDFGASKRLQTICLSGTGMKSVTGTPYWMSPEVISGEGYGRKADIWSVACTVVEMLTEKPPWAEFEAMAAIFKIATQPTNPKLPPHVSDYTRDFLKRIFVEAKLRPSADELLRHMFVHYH
Protocol: as §1

IRAK3 = biological target: T3, IRAK3 (Homo sapiens, UniProt Q9Y616)
T3 sequence (Q9Y616 1-596): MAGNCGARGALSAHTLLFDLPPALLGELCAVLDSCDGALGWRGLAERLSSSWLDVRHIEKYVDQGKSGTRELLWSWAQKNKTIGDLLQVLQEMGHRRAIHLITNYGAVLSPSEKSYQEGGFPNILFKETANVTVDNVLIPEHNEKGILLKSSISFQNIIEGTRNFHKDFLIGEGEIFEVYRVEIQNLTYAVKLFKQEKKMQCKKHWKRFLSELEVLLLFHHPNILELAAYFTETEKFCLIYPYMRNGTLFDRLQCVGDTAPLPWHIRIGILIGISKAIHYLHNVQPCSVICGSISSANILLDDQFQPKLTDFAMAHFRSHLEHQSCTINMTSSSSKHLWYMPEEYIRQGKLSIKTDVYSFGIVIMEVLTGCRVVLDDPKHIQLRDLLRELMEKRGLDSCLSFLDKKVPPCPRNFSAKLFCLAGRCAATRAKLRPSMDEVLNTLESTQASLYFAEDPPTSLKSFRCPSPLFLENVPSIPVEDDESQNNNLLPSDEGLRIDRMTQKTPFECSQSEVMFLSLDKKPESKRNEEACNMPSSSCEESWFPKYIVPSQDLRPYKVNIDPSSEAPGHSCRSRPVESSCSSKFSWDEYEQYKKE
Protocol: as §1

CAMK4 = biological target: T4, CAMK4 (Homo sapiens, UniProt Q16566)
T4 sequence (Q16566 1-473): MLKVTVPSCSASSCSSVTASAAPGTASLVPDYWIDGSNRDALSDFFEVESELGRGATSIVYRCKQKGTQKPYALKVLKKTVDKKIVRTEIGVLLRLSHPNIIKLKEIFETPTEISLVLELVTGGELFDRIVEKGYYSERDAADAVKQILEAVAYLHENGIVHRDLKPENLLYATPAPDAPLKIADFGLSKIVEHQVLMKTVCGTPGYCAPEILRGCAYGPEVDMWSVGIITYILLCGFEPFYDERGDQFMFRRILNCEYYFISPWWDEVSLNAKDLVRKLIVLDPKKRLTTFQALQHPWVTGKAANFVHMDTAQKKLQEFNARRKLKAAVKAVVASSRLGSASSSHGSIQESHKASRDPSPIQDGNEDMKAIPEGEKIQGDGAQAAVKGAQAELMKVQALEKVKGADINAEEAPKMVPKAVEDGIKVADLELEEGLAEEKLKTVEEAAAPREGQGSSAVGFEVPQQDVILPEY
Protocol: as §1

PIK4CB, sequence (Q9UBF8 whole entry, species assumed): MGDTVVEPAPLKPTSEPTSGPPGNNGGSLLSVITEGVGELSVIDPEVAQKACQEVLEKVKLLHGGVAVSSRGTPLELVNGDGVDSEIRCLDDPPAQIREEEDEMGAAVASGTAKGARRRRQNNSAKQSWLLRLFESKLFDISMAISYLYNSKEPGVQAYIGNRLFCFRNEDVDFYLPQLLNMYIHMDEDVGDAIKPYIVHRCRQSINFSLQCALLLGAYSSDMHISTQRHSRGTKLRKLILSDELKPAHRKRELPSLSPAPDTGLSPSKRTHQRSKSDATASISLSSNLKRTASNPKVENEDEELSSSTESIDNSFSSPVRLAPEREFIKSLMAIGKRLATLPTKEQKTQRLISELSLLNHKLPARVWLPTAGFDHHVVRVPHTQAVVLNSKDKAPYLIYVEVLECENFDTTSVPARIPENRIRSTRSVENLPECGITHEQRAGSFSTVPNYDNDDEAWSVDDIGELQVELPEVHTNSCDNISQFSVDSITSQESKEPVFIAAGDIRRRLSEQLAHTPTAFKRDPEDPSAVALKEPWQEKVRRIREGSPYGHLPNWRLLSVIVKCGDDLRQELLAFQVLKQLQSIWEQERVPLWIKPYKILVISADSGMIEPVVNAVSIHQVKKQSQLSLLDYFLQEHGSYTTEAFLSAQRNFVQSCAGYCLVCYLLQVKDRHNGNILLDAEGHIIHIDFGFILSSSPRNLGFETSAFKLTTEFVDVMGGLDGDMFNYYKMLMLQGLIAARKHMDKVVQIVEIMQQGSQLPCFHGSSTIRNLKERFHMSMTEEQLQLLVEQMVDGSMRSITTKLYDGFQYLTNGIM

## Nc1nc2c(-c3cc(Br)c(Br)[nH]3)nccc2[nH]1 [Ageladine A, ageladine A, reference compound]
PIK4CB
  remaining activity at 1 µM: 66%
PIK4CB; 10 μM
  remaining activity at 10 µM: 50%
AAK1
  remaining activity at 1 µM: 90%
AAK1; 10 μM
  remaining activity at 10 µM: 83%
[1]
  remaining activity at 1 µM: 20%
[1]; 10 μM
  remaining activity at 10 µM: 22%
ULK3
  remaining activity at 1 µM: 82%
ULK3; 10 μM
  remaining activity at 10 µM: 81%
CLK4
  remaining activity at 1 µM: 51%
CLK4; 10 μM
  remaining activity at 10 µM: 11%
MAP3K2
  remaining activity at 1 µM: 73%
MAP3K2; 10 μM
  remaining activity at 10 µM: 70%
IRAK3
  remaining activity at 1 µM: 85%
IRAK3; 10 μM
  remaining activity at 10 µM: 51%
CAMK4
  remaining activity at 1 µM: 100%
CAMK4; 10 μM
  remaining activity at 10 µM: 97%

## Nc1nc2c(-c3ccccn3)nccc2[nH]1 [drawing 35, 4-(pyrid-2-yl)-1H-imidazo[4,5-c]pyridin-2-amine]
PIK4CB
  remaining activity at 1 µM: 88%
AAK1
  remaining activity at 1 µM: 27%
[1]
  remaining activity at 1 µM: 33%
ULK3
  remaining activity at 1 µM: 51%
CLK4
  remaining activity at 1 µM: 60%
MAP3K2
  remaining activity at 1 µM: 54%
IRAK3
  remaining activity at 1 µM: 88%
CAMK4
  remaining activity at 1 µM: 100%

## Nc1nc2c(-c3cnc4ccccc4c3)nccc2[nH]1 [drawing 36, 4-(quinolin-3-yl)-1H-imidazo[4,5-c]pyridin-2-amine]
PIK4CB
  remaining activity at 1 µM: 37%
AAK1
  remaining activity at 1 µM: 83%
[1]
  remaining activity at 1 µM: 92%
ULK3
  remaining activity at 1 µM: 87%
CLK4
  remaining activity at 1 µM: 65%
MAP3K2
  remaining activity at 1 µM: 81%
IRAK3
  remaining activity at 1 µM: 56%
CAMK4
  remaining activity at 1 µM: 100%
